# Source: US10633383B2, “Compounds for the treatment, alleviation or prevention of disorders associated with Tau aggregates” (AC Immune SA, priority 2018, dated 2020)
# How the values were obtained:
# [1] = tested on: rTg4510 mice; experiment: Histology for misfolded Tau (MC1) in rTg4510 mice; assay type: in vivo, mouse; conditions: 30 mg/kg bi-daily by gavage for 1 month, frontal cortex (FIG. 2)
# From the text: (§1) In Vivo Efficacy of the Compounds of the Present Invention In Vivo Study Design for the Testing of Example 12 and Example 45
# (§2) Double transgenic rTg4510 mice express the full-length human Tau carrying the P301L mutation (Tau4R0N-P301L) under the control of the tet-inducible CaMKII promoter (Ramsden et al., J. Neurosci., 2005⋅25(46):10637-10647). Single transgenic mice expressing only the tetracycline-controlled transactivator (tTA) were used as genotype controls. The study comprised 4 treatment groups (n=15 female for tTa group and n=11 female mice/group for the treatment) with the following group distribution (see Table 9). […]
# (§3) After perfusion, brains were then removed and hemi-sagitally hemisected. […] A systematic random set of sections from seven sagittal levels per animal was used to quantify the Iba1 and CD68 immunoreactivity while 1 section/animal from the medio-lateral level 4 were used to assess Tau misfolding (MC1 monoclonal antibody). […] Sections were imaged using a digital slide scanner (Panoramic 250 Flash, 3D Histech Ltd.) and quantified using the image visualization software Visiopharm.
# MC1 staining was analyzed in the frontal cortex in the upper cortical layers. […] This ROI was analyzed in Visiopharm using a predetermined threshold for MC1 staining with a pixel intensity threshold above 30 (8 bits pictures) and excluding all detected objects smaller than 20 μm^2. […]
# [2] = tested on: rTg4510 mice; experiment: Histology for neuroinflammation markers (Iba1, CD68) in rTg4510 mice; assay type: in vivo, mouse
# From the text: as §1
# as §2, with “9). Compounds or vehicle control were administered once daily or bi-daily by gavage for 1 month starting at the age of 5 months. All mice received 200 ppm doxycycline in chow for 3 weeks plus a loading dose in drinking water for the first two days at 1.5 mg/mL in 4% sucrose.” for “9).”
# as §3, with “Visiopharm. […]” for “Visiopharm.”
smiles,measurement,setting,value
Fc1ccc2[nH]c3c(c2c1)CN(c1ccc2nc(N4CCOCC4)oc2c1)CC3 [Example 12],MC1 positive area (misfolded Tau),[1],decreased the MC1 positive area
same,microgliosis measured as Iba1 immunoreactive area,[2]; 30 mg/kg bi-daily by gavage for 1 month (FIG. 3A),decreased microgliosis
same,activated phagocytic microglial cells positive for CD68,[2]; 30 mg/kg bi-daily by gavage for 1 month (FIG. 3B),decreased highy activated phagocytic migroglial cells
